“Also recorded” adds a separate entry of the source.
Tests used:
NF-κB [1] = target: T1, NF-κB (Homo sapiens, UniProt P19838+Q04206); assay: EMSA of NF-κB DNA binding in nuclear extracts of treated amnion cells; format: cell-based; details: L− and L+ amnion cells, treated 2 h, then IL-1β 15 min
T1 construct: nuclear protein extracts from myometrial cells; endogenous in cells; host or cells: primary human myometrial cells (term, passage 1-4)
Protocol: (§1) Placentae were obtained from patients at term either at elective Caesarean section prior to labour (L−) or following spontaneous labour onset and vaginal delivery (L+). Amnion cells were prepared as described in Bennett et al., (1989). Briefly, the amnion was separated from the placenta, washed 3× in PBS, cut into strips, and incubated in 0.5 mM EDTA in PBS for 15 min. The strips were washed in PBS 2× and digested with 2.5 mg/ml dispase in serum-free DMEM for 35 min at 37° C. The amnion was then shaken vigorously in DMEM, 10% FCS to dissociate the cells, the remaining strips discarded, and the cell suspension pelleted at 175 g for 10 min and cultured in DMEM, 10% FCS (Sigma), 1% L-glutamine, 1% penicillin-streptomycin.
Nuclear and cytosolic protein extracts were obtained from cultured amnion cells as described by Schreiber et al (1989). For nuclear/cytosolic fractionation, confluent cell monolayers were scraped and lysed using a buffer containing 10 mM HEPES, 10 mM KCl, 0.1 mM EDTA, 0.1 mM EGTA, 2 mM DTT, 1% (v/v) NP-40 and complete protease inhibitor tablets (CPIs, Roche), diluted to manufacturer's instructions. Cell lysates were incubated on ice for 10 min and NP-40 added to a final concentration of 1% (v/v). Lysates were vortexed for 10 secs and centrifuged for 30 secs at 4° C., 12000 g. The supernatants were retained as the cytosolic protein extracts. The pellets were resuspended in buffer containing 10 mM HEPES, 10 mM KCl, 0.1 mM EDTA, 0.1 mM EGTA, 2 mM DTT, 400 mM NaCl, 1% NP-40 (v/v) and CPIs. Samples were shaken vigorously for 15 min in an ice bath. The nuclear protein extracts were obtained in the supernatant following a 5 min centrifugation at 4° C., 12000 g.
Sense and antisense strands (175 nmole/ml each) were incubated in annealing buffer (10 mM Tris-HCl pH7.5, 100 mM NaCl, 1 mM EDTA) for 10 min at 65° C., and allowed to cool at room temperature for 2 h. 3.5 pmole double-stranded oligonucleotides were end-labelled with 0.37 MBq ^32P(γATP) by incubating for 30 min at 37° C. with T4 polynucleotide kinase. Labelled oligonucleotides were recovered by centrifugation at 3000 rpm for 2 min through MicroSpin G-25 or G-50 sephadex columns (Amersham Biosciences).
3-5 μg protein extracts were incubated on ice for 1 h with non-radiolabelled non-specific oligonucleotide (poly(dI-dC) or Oct-1) in a binding buffer (20% (v/V) glycerol, 5 mM MgCl2, 2 mM EDTA, 50 mM Tris-HCl pH7.5, 250 mM NaCl, 2 mM DTT), followed by a 45 min incubation with 0.035 pmole ^32P(γ(ATP)-end labelled oligonucleotide probes:
Oct-1 or SP-1 consensus sequences were used as a controls for a NF-κB-specific effect. The resulting protein/DNA complexes were separated in a 4% acrylamide gel, the gel dried under vacuum at 80° C. and exposed to X-ray film. For supershift analysis, samples were incubated with 2 μg antibodies for 30 min on ice prior to incubation with oligonucleotides. Non-radio-labelled oligonucleotides were used at 100-fold molar excess for specific and non-specific competition for DNA binding. Reagents for EMSA were obtained from Promega Life Sciences, Delta House, Chilworth Research Centre, Southampton SO16 7NS, United Kingdom.

NF-κB [2] = assay: NF-κB-dependent luciferase reporter (κB.BG.Luc) in amnion cells; format: cell-based, human; details: L− or L+ amnion cells, treated 2 h, IL-1β 1 ng/ml 6 h
Protocol: . Values are normalised for b-gal reporter activity.
as §1
pGL3.6κB.BG.luc was the reporter construct used to assess NF-κB-mediated transcription, while the mutant pGL3.6κBmut.luc and empty pGL3.BG.luc were used as controls (Schwarzer et al., 1998).
pGL3.6κB.BG.luc: a NF-κB-dependent reporter construct with 6 copies of the NF-κB binding site. It contains two tandem repeats of the sequence 5′-GGG GAC TTT C CC TGGGGACTTTCCCTGGGGACTTTCCC-3′, which contains three copies of the decameric NF-κB binding site (underlined) upstream of a minimal β-globin promoter driving a luciferase gene.
(§2) Cells were co-transfected with the renilla vector pRL-CMV or β-galactosidase vector pCH110 as internal controls for transfection efficiencies.

NF-κB [3] = assay: NF-κB-dependent luciferase reporter (κB.BG.Luc) in myometrial cells; format: cell-based, human; details: for IL-1β-induced NF-κB transcriptional activity (κB.BG.Luc reporter): treated 2 h, IL-1β 1 ng/ml 6 h
Protocol: Myometrial cells were transiently transfected with the NFκB-dependent reporter construct κB.BG.Luc, treated with 15dPGJ2 or vehicle for 2 h, ±IL-1β (1 ng/ml) for 6 h. […] Values are normalised for b-gal reporter activity. (NS=nonstimulated).
Myometrial cells were transfected with […] κB.BG.Luc reporter and 200 ng PPAR-γ expression vector and treated with 15d-PGJ2 for 2 h followed by IL-1β (1 ng/ml) for 6 h. Values are normalised for β-galactosidase reporter activity. (NS=nonstimulated).
Myometrial tissue was collected at term from the upper margin of uterine incision at the time of lower segment caesarean section either prior to the onset of labour (L−) or […] (L+). L+ samples were collected by Dr Mark Johnson and Dr S Soorrana at Chelsea & Westminster Hospital. Myometrial tissue was dissected, rinsed in PBS, and digested in serum-free DMEM containing 15 mg/ml collagenase 1A (Sigma), 15 mg/ml collagenase X, and 50 mg/ml bovine serum albumin for 45 min at 37° C. The cell suspension was filtered through a cell strainer, centrifuged at 400 g for 5 min, and the pellet re-suspended and plated out in DMEM, 10% FCS (Helena BioScience), 1% L-glutainine, 1% penicillin-streptomycin. Cells were used between passage numbers 1-4.
pGL3.6κB.BG.luc: a NF-κB-dependent reporter construct with 6 copies of the NF-κB binding site.
as §2

T1 sequence (Q04206 whole entry): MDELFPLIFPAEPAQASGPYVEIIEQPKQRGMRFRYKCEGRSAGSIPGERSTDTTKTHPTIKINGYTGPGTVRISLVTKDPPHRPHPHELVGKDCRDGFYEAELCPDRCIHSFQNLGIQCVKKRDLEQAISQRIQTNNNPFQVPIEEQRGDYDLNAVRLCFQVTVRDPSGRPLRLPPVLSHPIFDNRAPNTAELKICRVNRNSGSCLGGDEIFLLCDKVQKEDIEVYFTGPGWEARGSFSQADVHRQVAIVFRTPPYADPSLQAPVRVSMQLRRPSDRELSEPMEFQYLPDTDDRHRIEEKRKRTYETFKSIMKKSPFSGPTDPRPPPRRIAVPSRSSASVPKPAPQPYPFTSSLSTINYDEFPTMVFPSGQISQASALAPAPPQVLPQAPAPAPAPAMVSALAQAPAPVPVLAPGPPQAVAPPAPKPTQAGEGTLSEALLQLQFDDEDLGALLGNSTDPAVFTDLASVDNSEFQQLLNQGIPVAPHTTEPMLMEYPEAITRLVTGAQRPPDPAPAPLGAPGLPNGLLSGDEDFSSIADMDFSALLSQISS
T1 sequence (P19838 1-433 limits assumed): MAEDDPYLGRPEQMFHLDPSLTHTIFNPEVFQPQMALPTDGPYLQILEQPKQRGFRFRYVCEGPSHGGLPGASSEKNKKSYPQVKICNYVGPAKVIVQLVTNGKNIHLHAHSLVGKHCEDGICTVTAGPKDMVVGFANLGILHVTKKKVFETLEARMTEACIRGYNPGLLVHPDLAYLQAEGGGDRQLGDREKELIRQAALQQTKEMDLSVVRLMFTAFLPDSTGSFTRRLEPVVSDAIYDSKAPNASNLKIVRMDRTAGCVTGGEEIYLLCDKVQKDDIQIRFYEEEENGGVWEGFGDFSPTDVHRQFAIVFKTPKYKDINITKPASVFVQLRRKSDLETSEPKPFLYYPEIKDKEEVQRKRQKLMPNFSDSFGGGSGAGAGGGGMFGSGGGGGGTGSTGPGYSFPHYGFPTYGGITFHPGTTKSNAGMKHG

Structure (SMILES) | IL-1β-induced NF-κB DNA binding (EMSA) (NF-κB [1]) | IL-1β-induced NF-κB DNA binding (EMSA) (NF-κB [1]; listed as 15dPGJ2) | IL-1β-induced NF-κB transcriptional activity (κB.BG.Luc reporter) (NF-κB [2]) | Effect of PPARγ overexpression on 15d-PGJ2 inhibition of NF-κB transcriptional activity (NF-κB [3]; 200 ng PPAR-γ expression vector) | IL-1β-induced NF-κB transcriptional activity (κB.BG.Luc reporter) (NF-κB [3]) | IL-1β-induced NF-κB transcriptional activity (κB.BG.Luc reporter) (NF-κB [3]; listed as 15dPGJ2)
CCCCCC=CC=C1C(=O)C=C[C@@H]1CC=CCCCC(=O)O [15d-PGJ2, 15-deoxy-Δ^12,14prostaglandin J2] | inhibited IL1-β-induced NF-κB DNA binding in a dose-dependent manner | inhibition | inhibited | does not potentiate | reducing reporter activity to basal levels; also recorded: inhibited | inhibition
CCCCC[C@H](O)/C=C/[C@H]1C=CC(=O)[C@@H]1CCCCCCC(=O)O [PGA1, prostaglandin A1] | inhibition | – | inhibited | – | reduced to basal levels | –

Source: US20070282004A1, “Use of a Cyclopentenone Prostaglandin for Delaying for the Onset and/or Preventing the Continuation of Labour” (Imperial College Innovations Limited, priority 2003, published 2007)
